System: Human patients with a history of allergy
Assay: Allergen challenge of human patients after FK506 eye drops; ocular itching score
Assay type: in vivo
Method: Human patients with a history of allergy were divided into 5 groups and treated in one eye with eye drop (placebo, 0.01% FK506, 0.03% FK506, 0.06% FK506 or 0.1% FK506), and the other eye with placebo. Each eye drop was administered 4 times per day for seven days and 16 hours after the final instillation, patients were administered allergen-containing eye drops at a concentration predetermined to cause a reaction in the patient. The one hundred patients having a baseline itching score of at lease 3, on a scale of 0 to 4, with 4 being most severe, were evaluated.

C=CC[C@@H]1/C=C(\C)C[C@H](C)C[C@H](OC)[C@H]2O[C@@](O)(C(=O)C(=O)N3CCCC[C@H]3C(=O)O[C@H](/C(C)=C/[C@@H]3CC[C@@H](O)[C@H](OC)C3)[C@H](C)[C@@H](O)CC1=O)[C@H](C)C[C@@H]2OC [FK506, 17-allyl-1,14-dihydroxy-12-[2-(4-hydroxy-3-methoxycyclohexyl)-1-methylvinyl]-23,25-dimethoxy-13,19,21,27-tetramethyl-11,28-dioxa-4-azatricyclo[22.3.1.0^4,9]octacos-18-ene-2,3,10,16-tetraone]
decrease from baseline itching score versus placebo (3 minutes post challenge, all concentrations (0.01%, 0.03%, 0.06%, 0.1% eye drops), 4 times per day for seven days, challenge 16 hours after final instillation): statistically significant versus placebo | decrease from baseline itching score: dose response (eye drops 0.01%, 0.03%, 0.06% or 0.1% FK506, 4 times per day for seven days, allergen challenge 16 hours after final instillation, itching scale 0 to 4, FIG. 1): pronounced dose response
